{
  "source": "patent US10538512B2",
  "about": "“Aminoacylindazole immunomodulators for treatment of autoimmune diseases” (The Rockefeller University, priority 2016, dated 2020)",
  "data": [
    {"biological_target": "T1, Human FXIIa (Homo sapiens, UniProt P00748)", "T1 construct": "active coagulation factor XII (FXIIa); purchased Enzyme Research Labs", "T1 sequence (P00748 373-615 limits assumed)": "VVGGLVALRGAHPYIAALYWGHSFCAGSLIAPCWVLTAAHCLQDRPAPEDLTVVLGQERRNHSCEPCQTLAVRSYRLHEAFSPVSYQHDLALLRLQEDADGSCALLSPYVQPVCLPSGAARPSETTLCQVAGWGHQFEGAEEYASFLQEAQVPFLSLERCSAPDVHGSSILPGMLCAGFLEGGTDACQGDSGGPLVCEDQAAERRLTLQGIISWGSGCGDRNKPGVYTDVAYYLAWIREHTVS", "T1 sequence (P00748 20-372 partner limits assumed)": "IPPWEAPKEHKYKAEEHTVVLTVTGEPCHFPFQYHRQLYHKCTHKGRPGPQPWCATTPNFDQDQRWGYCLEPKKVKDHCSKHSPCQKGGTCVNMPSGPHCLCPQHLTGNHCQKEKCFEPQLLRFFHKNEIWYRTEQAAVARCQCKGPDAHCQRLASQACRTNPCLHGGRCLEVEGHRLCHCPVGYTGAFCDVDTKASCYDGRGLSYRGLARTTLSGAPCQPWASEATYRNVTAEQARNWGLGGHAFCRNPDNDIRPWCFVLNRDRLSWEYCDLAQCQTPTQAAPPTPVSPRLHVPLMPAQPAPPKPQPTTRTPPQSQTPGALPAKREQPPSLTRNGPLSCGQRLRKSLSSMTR", "assay": "Factor XIIa (FXIIa) inhibitory activity, chromogenic substrate assay", "type": "biochemical", "settings": "Human FXIIa 12.5 nM, Pefachrome XIIa 400 μM, 10 min preincubation", "experimental": "Factor XIIa (FXIIa) Inhibitory Activity:\nIn a 96-well clear bottom plate, 80 μl of assay buffer was added to each well. Assay buffer consists of 0.5× Hank's Balanced Salt Solution (Invitrogen), buffered with 25 mM HEPES pH 7.4 (Invitrogen) and 0.5× Tris-buffered saline with Tween-20 0.05% (Santa Cruz Biotechnology). Test compounds were first dissolved in DMSO (Sigma) and then 4 μl were added to test wells containing assay buffer. Serial dilutions using an automated multi-channel pipette were used to generate a concentration range of approximately 1-100 μM. […] 80 μl of this enzyme solution was added to the assay wells. The enzyme/compound mixtures were incubated for 10 minutes at room temperature. Chromogenic substrate (Pefachrome XIIa; Enzyme Research Labs) was added to assay wells at a final concentration of 400 μM. The assay plate was spun for 1 minute at 1500 g and then read at 37° C. in a SpectraMax M2 plate reader (λ=405 nm). Activity was quantified as the rate of change in absorbance, which corresponds to the rate of substrate cleavage.", "units": {"IC50": "µM"}, "values": [
      {"molecule": "Nc1c2c(nn1C(=O)[C@@H]1CCNc3ccc(F)cc31)C[C@H](O)CC2", "note": "(single isomer, unassigned) [Example 184, ((6R*)-3-amino-6-hydroxy-4,5,6,7-tetrahydroindazol-2-yl)((4R*)-6-fluoro-1,2,3,4-tetrahydroquinolin-4-yl)methanone]", "IC50": "> 100"},
      {"molecule": "Nc1c2c(nn1C(=O)C1CCNc3ccc(F)cc31)CCC(NC(=O)OCc1ccccc1)C2", "note": "(single isomer, unassigned) [Example 186, benzyl (5R*)-3-amino-2-(6-fluoro-1,2,3,4-tetrahydroquinoline-4-carbonyl)-4,5,6,7-tetrahydro-2H-indazol-5-ylcarbamate]", "IC50": 2.5},
      {"molecule": "Nc1nn(C(=O)C2CCNc3ccc(F)cc32)c2c1CC(NC(=O)OCc1ccccc1)CC2", "note": "(single isomer, unassigned) [Example 191, benzyl N-[(5S*)-3-amino-1-[(6-fluoro-1,2,3,4-tetrahydroquinolin-4-yl)carbonyl]-4,5,6,7-tetrahydro-1H-indazol-5-yl]carbamate]", "IC50": "> 55"},
      {"molecule": "Cc1cccc2c1NCCC2C(=O)n1nc2c(c1N)C=CCC2", "note": "(single isomer, unassigned) [Example 194, (R*)-(3-amino-6,7-dihydroindazol-2-yl)(8-methyl-1,2,3,4-tetrahydroquinolin-4-yl)methanone]", "IC50": 7},
      {"molecule": "Cc1cccc2c1NCCC2C(=O)n1nc2c(c1N)C=CCC2", "note": "(single isomer, unassigned) [Example 195, (S*)-(3-amino-6,7-dihydroindazol-2-yl)(8-methyl-1,2,3,4-tetrahydroquinolin-4-yl)methanone]", "IC50": 0.04},
      {"molecule": "Cc1cccc2c1NCC[C@@H]2C(=O)n1nc2c(c1N)CC[C@@H](O)C2", "note": "(single isomer, unassigned) [Example 199, ((6R*)-3-amino-6-hydroxy-4,5,6,7-tetrahydroindazol-2-yl)((4S*)-8-methyl-1,2,3,4-tetrahydroquinolin-4-yl)methanone]", "IC50": 0.04},
      {"molecule": "Cc1cccc2c1NCC[C@H]2C(=O)n1nc2c(c1N)CC[C@@H](O)C2", "note": "(single isomer, unassigned) [Example 200, ((6R*)-3-amino-6-hydroxy-4,5,6,7-tetrahydroindazol-2-yl)((4R*)-8-methyl-1,2,3,4-tetrahydroquinolin-4-yl)methanone]", "IC50": 3.3},
      {"molecule": "Cc1cccc2c1NCC[C@@H]2C(=O)n1nc(N)c2c1C[C@H](O)CC2", "note": "(single isomer, unassigned) [Example 201, ((6R*)-3-amino-6-hydroxy-4,5,6,7-tetrahydroindazol-1-yl)((4S*)-8-methyl-1,2,3,4-tetrahydroquinolin-4-yl)methanone]", "IC50": "> 150"},
      {"molecule": "Cc1cccc2c1NCC[C@H]2C(=O)n1nc(N)c2c1C[C@H](O)CC2", "note": "(single isomer, unassigned) [Example 202, ((6R*)-3-amino-6-hydroxy-4,5,6,7-tetrahydroindazol-1-yl)((4R*)-8-methyl-1,2,3,4-tetrahydroquinolin-4-yl)methanone]", "IC50": "> 175"},
      {"molecule": "Nc1c2c(nn1C(=O)[C@H]1CCNc3c(Cl)cccc31)CC[C@@H](O)C2", "note": "(single isomer, unassigned) [Example 204, ((5R*)-3-amino-5-hydroxy-4,5,6,7-tetrahydroindazol-2-yl)((4S*)-8-chloro-1,2,3,4-tetrahydroquinolin-4-yl)methanone]", "IC50": 0.04},
      {"molecule": "Nc1nn(C(=O)C2CCNc3c(Cl)cccc32)c2c1CC(O)CC2", "note": "(single isomer, unassigned) [Example 205, ((5R*)-3-amino-5-hydroxy-4,5,6,7-tetrahydroindazol-1-yl)(8-chloro-1,2,3,4-tetrahydroquinolin-4-yl)methanone]", "IC50": "> 100"},
      {"molecule": "Nc1c2c(nn1C(=O)[C@@H]1CCNc3c(Cl)cccc31)C[C@@H](O)CC2", "note": "(single isomer, unassigned) [Example 206, ((6S*)-3-amino-6-hydroxy-4,5,6,7-tetrahydroindazol-2-yl)((4R*)-8-chloro-1,2,3,4-tetrahydroquinolin-4-yl)methanone]", "IC50": 2.8},
      {"molecule": "Nc1c2c(nn1C(=O)[C@H]1CCNc3c(Cl)cccc31)C[C@@H](O)CC2", "note": "(single isomer, unassigned) [Example 207, ((6S*)-3-amino-6-hydroxy-4,5,6,7-tetrahydroindazol-2-yl)((4S*)-8-chloro-1,2,3,4-tetrahydroquinolin-4-yl)methanone]", "IC50": 0.16},
      {"molecule": "Nc1nn(C(=O)C2CCNc3c(Cl)cccc32)c2c1CCC(O)C2", "note": "(single isomer, unassigned) [Example 208, ((6S*)-3-amino-6-hydroxy-4,5,6,7-tetrahydroindazol-1-yl)(8-chloro-1,2,3,4-tetrahydroquinolin-4-yl)methanone]", "IC50": "> 100"},
      {"molecule": "Nc1nn(C(=O)[C@H]2CCNc3c(Cl)cccc32)c2c1CC[C@@H](O)C2", "note": "(single isomer, unassigned) [Example 211, ((6R*)-3-amino-6-hydroxy-4,5,6,7-tetrahydroindazol-1-yl)((4S*)-8-chloro-1,2,3,4-tetrahydroquinolin-4-yl)methanone]", "IC50": "> 100"},
      {"molecule": "Nc1nn(C(=O)[C@@H]2CCNc3c(Cl)cccc32)c2c1CC[C@@H](O)C2", "note": "(single isomer, unassigned) [Example 212, ((6R*)-3-amino-6-hydroxy-4,5,6,7-tetrahydroindazol-1-yl)((4R*)-8-chloro-1,2,3,4-tetrahydroquinolin-4-yl)methanone]", "IC50": "> 100"},
      {"molecule": "Cc1cccc2c1NCC[C@H]2C(=O)n1nc2c(c1N)C[C@H](O)CC2", "note": "(single isomer, unassigned) [Example 217, ((5R*)-3-amino-5-hydroxy-4,5,6,7-tetrahydro-2H-indazol-2-yl)((4R*)-8-methyl-1,2,3,4-tetrahydroquinolin-4-yl)methanone]", "IC50": 35},
      {"molecule": "Nc1c2c(nn1C(=O)[C@@H]1CCNc3ccc(F)cc31)CC[C@@H](N)C2", "note": "(stereo in doubt) [Example 188, ((5R*)-3,5-diamino-4,5,6,7-tetrahydroindazol-2-yl)((4R*)-6-fluoro-1,2,3,4-tetrahydroquinolin-4-yl)methanone]", "IC50": "> 80"},
      {"molecule": "Nc1c2c(nn1C(=O)[C@H]1CCNc3ccc(F)cc31)CC[C@@H](N)C2", "note": "(stereo in doubt) [Example 189, ((5R*)-3,5-diamino-4,5,6,7-tetrahydroindazol-2-yl)((4S*)-6-fluoro-1,2,3,4-tetrahydroquinolin-4-yl)methanone]", "IC50": 3},
      {"molecule": "Nc1c2c(nn1C(=O)[C@@H]1CCNc3ccc(F)cc31)CC[C@H](N)C2", "note": "(stereo in doubt) [Example 193, ((5S*)-3,5-diamino-4,5,6,7-tetrahydroindazol-2-yl)((4R*)-6-fluoro-1,2,3,4-tetrahydroquinolin-4-yl)methanone]", "IC50": 4},
      {"molecule": "Nc1c2c(nn1C(=O)c1cccc3ccccc13)CCCC2", "note": "[Example 39, (3-amino-4,5,6,7-tetrahydroindazol-2-yl)(naphthalen-1-yl)methanone]", "IC50": 4},
      {"molecule": "Cc1[nH]c2ccccc2c1C(=O)n1nc2c(c1N)CCCC2", "note": "[Example 44, (3-amino-4,5,6,7-tetrahydroindazol-2-yl)(2-methyl-1H-indol-3-yl)methanone]", "IC50": 11},
      {"molecule": "Nc1c2c(nn1C(=O)c1cccc3[nH]ncc13)CCCC2", "note": "[Example 47, (3-amino-4,5,6,7-tetrahydroindazol-2-yl)(1H-indazol-4-yl)methanone]", "IC50": 0.03},
      {"molecule": "Cc1cc2c(C(=O)n3nc4c(c3N)CCCC4)cccc2n1C(C)C", "note": "[Example 49, (3-amino-4,5,6,7-tetrahydroindazol-2-yl)(1-isopropyl-2-methyl-1H-indol-4-yl)methanone]", "IC50": 0.02},
      {"molecule": "Cc1cc2c(C(=O)n3nc4c(c3N)CCCC4)cccc2s1", "note": "[Example 57, (3-Amino-4,5,6,7-tetrahydro-indazol-2-yl)-(2-methyl-benzo[b]thiophen-4-yl)-methanone]", "IC50": 0.06},
      {"molecule": "CCc1cc2c([nH]1)CCCC2C(=O)n1nc2c(c1N)CCCC2", "note": "(centres unmarked) [Example 82, (3-amino-4,5,6,7-tetrahydroindazol-2-yl)(2-ethyl-4,5,6,7-tetrahydro-1H-indol-4-yl)methanone]", "IC50": 0.04},
      {"molecule": "CN1CCC(C(=O)n2nc3c(c2N)CCCC3)c2cccnc21", "note": "(centres unmarked) [Example 87, (3-amino-4,5,6,7-tetrahydroindazol-2-yl)(1-methyl-1,2,3,4-tetrahydro-1,8-naphthyridin-4-yl)methanone]", "IC50": 5},
      {"molecule": "Cn1cc2c(n1)CCCC2C(=O)n1nc2c(c1N)CCCC2", "note": "(centres unmarked) [Example 88, (3-amino-4,5,6,7-tetrahydroindazol-2-yl)(2-methyl-4,5,6,7-tetrahydro-2H-indazol-4-yl)methanone]", "IC50": 0.85},
      {"molecule": "Nc1nn(C(=O)C2CCCc3[nH]ccc32)c2c1CCCC2", "note": "(centres unmarked) [Example 93, (3-amino-4,5,6,7-tetrahydroindazol-1-yl)(4,5,6,7-tetrahydro-1H-indol-4-yl)methanone]", "IC50": "> 100"}
    ]}
  ]
}
